{
  "source": "patent US20250082611A1",
  "about": "“DOSING REGIMEN FOR AN NLRP3 INHIBITOR IN THE TREATMENT OF OSTEOARTHRITIS” (Novartis AG, priority 2021, published 2025)",
  "key": {"[1]": {"tested_on": "ex-vivo stimulated IL-1β release in whole blood", "assay": "First-in-human study: ex-vivo LPS stimulation of whole blood, IL-1β release (PD)", "format": "cell-based", "description": "To determine the PD response to NLRP3 inhibition, whole blood samples were collected for exploratory PD analysis (Part A and Groups 1-3 of Part C). An ex-vivo stimulation by activating the NLRP3 inflammasome with lipopolysaccharide (LPS) was evaluated compared to control conditions, followed by analysis of blood cell release of the inflammatory marker IL-1β.\nCombined individual and mean plots of the individual IL-1β concentrations versus time are presented by treatment. Modeling of Compound IA effects on a corrected, stimulated ex vivo Lipopolysaccharide (LPS) challenge in whole blood included evaluation of the relationship between LPS challenge results by conditionally weighted residual modeling."}, "[2]": {"assay": "First-in-human study: safety and tolerability in healthy subjects", "format": "in vivo", "text": "(§1) The study design comprised of 4 parts: single ascending dose (SAD; Part A), relative bioavailability of tablet formulations (Part B), multiple ascending dose (MAD; Part C), and relative bioavailability and food effect (Part D) (FIG. 2; RF=Reference Formulation (crystalline suspension); T2=Test Formulation 2 (crystalline tablet); T3=Test Formulation 3 (spray-dried dispersion suspension); T4=Test Formulation 4 (encapsulated crystalline tablet)). In each group of Parts A and C, 8 subjects were randomized in a 3:1 ratio to receive Compound IA (6 subjects) or matching placebo (2 subjects).\n(§2) For Part A, eight cohorts of eight eligible subjects were enrolled. Each subject received a single oral dose of Compound IA (3, 10, 30, 100, 300 mg of crystalline suspension and 100, 300, 600 mg of spray-dried dispersion (SDD) under fasted conditions. As this was a FIH study, two sentinel subjects were dosed first, at least 24 hours before the rest of the cohort was dosed, to assure maximum safety. Part B was skipped because the data from Part A provided for an adequate comparison of crystalline and SDD formulations.\n(§3) For part C, eligible subjects were enrolled in six different cohorts. […] Subjects were dosed in Part C following review available safety, tolerability and PK data from preceding groups in Part A.\nSafety assessments in all parts of the study included adverse event (AE) reporting using the Medical Dictionary for Regulatory Activities (version 22.1), clinical laboratory tests (biochemistry, hematology, and urinalysis), vital signs, electrocardiograms (ECGs), physical examination and skin biopsy (as applicable)."}, "[3]": {"assay": "First-in-human study: plasma pharmacokinetics in healthy subjects", "format": "in vivo", "details": "for median lag time: fed; for half-life: read-out: mean t1/2 (converted); for Tmax: read-out: median tmax; for CL renal: urine, read-out: Renal clearance (converted); for dose proportionality of exposure: single doses", "text": "as §1, §2, §3\n[…] […] Based on these doses, subjects were randomly assigned to 1 of 6 treatment sequences (1 subject per sequence) prepared using Williams design.\nIn single-dose part, blood samples were collected for determining the concentrations of Compound IA at the following time points relative to dosing on Day 1: at pre-dose and 0.25, 0.5, 0.75, 1, 1.5, 2, 3, 4, 6, 8, 12, 24, 36, and 48 hours post-dose, and at the follow-up visit. In multiple-dose part, relative to dosing on Days 1 and 14, samples were collected at pre-dose and 0.25, 0.5, 0.75, 1, 1.5, 2, 3, 4, 6, 8, and 12 hours post-dose; on Days 2, 4, 7, 9, and 11: at pre-dose; after the last dose on Day 14: at 24 and 36 hours (Day 15), and 48 hours (Day 16) post-dose; and at the follow-up visit.\nAll data were summarized using descriptive statistics and were listed and summarized in tabular and/or graphical form. Descriptive statistics for all relevant PK parameters included: n, arithmetic mean, standard deviation (SD), coefficient of variation (CV %), minimum, median, maximum, geometric mean, and geometric CV %. For tmax only median, minimum, and maximum are presented. PK parameters were calculated using noncompartmental methods using software Phoenix Version 8.1. Concentrations below the lower limit of quantification (LLOQ) were treated as zero in summary statistics for concentration data only. The linear trapezoidal rule was used for AUC calculation. Regression analysis of the terminal plasma elimination phase for the determination of t1/2 included at least 3 data points after Cmax. Parameters with an adjusted r^2 below 0.80 were flagged but included in the descriptive statistics. The parameters AUC0-inf, % AUCextra, CL/F, and VZ/F with an % AUCextra above 20% were excluded from the descriptive statistics.\nIn Part A, dose proportionality was explored using a regression power model relating logarithmically (log)-transformed Cmax, AUC0-last, and AUC0-inf to the log-transformed dose level. Point estimates for the intercept and the slope and corresponding 90% confidence intervals (CIs) for the slope were calculated. For Part C, dose proportionality was not explored. In Part D, the relative bioavailability of the Test Formulation (crystalline tablet, SDD and crystalline tablet) versus the Reference Formulation (crystalline suspension), as well as the effect of food, was explored using an analysis of variance (ANOVA) model on the PK data.\nFor the following treatments, the least-squares geometric mean ratios were presented together with 90% CIs: 100 mg Compound IA tablet fasted over 100 mg Compound IA suspension fasted, and 100 mg Compound IA tablet fed over 100 mg Compound IA tablet fasted."}, "[4]": {"details": "fractional Emax model with Hill coefficient"}, "[5]": {"details": "single dose 100 mg, crystalline suspension"}},
  "note": "“Also recorded” adds a separate entry of the source. Where two headings read alike, the source gives them in different places.",
  "data": [
    {"smiles": "CC(C)(O)c1ncc([S@](N)(=O)=NC(=O)Nc2c3c(cc4c2CCC4)CCC3)s1", "note": "[Compound IA, (R)-N′-((1,2,3,5,6,7-hexahydro-s-indacen-4-yl)carbamoyl)-2-(2-hydroxypropan-2-yl) thiazole-5-sulfonimidamide]", "values": [
      {"measurement": "IC90", "setting": "[1]; Homo sapiens, LPS challenge, median, 90% CI 2.84, 3.54, read-out: IC90, inhibiting 90% of ex-vivo stimulated IL-1β release", "value": 3180, "unit": "nM"},
      {"measurement": "IC50", "setting": "[1]; Homo sapiens, relative to 100% inhibition, 90% CI 0.118, 0.179", "value": 146, "unit": "nM"},
      {"measurement": "EC50", "setting": "[1]; Homo sapiens, relative to estimated maximum effect, 90% CI 0.114, 0.171", "value": 141, "unit": "nM"},
      {"measurement": "EC90", "setting": "[1]; Homo sapiens, relative to estimated maximum effect, 90% CI 2.24, 2.94", "value": 2570, "unit": "nM"},
      {"measurement": "Emax of IL-1β, arithmetic mean (±SD)", "setting": "[1]; [4]", "value": "−0.985 (±0.00277)"},
      {"measurement": "observed stimulation effect of IL-1β, arithmetic mean (±SD)", "setting": "[1]; [4]", "value": "1820 (±102) ng/L"},
      {"measurement": "time after dosing from which inhibition of IL-1β was observed", "setting": "[1]; most dose levels", "value": 1, "unit": "h"},
      {"measurement": "concentrations of IL-1β with increasing doses", "setting": "[1]; single and multiple oral doses", "value": "dose-dependent decreases"},
      {"measurement": "subjects with TEAEs considered related to study drug", "setting": "[2]; 21/94 who received Compound IA", "value": 22, "unit": "%"},
      {"measurement": "subjects reporting treatment emergent adverse events (TEAEs)", "setting": "[2]; Compound IA arm, 66/94 subjects", "value": 70, "unit": "%"},
      {"measurement": "skin rash", "setting": "[2]; dosed once daily with 30, 100, and 200 mg", "value": "skin rashes have been observed in some participants"},
      {"measurement": "dose relation of maculopapular and/or pruritic skin rashes", "setting": "[2]; human, in vivo", "value": "most frequently reported at the higher multiple dose levels"},
      {"measurement": "intensity of skin rash/pruritus TEAEs", "setting": "[2]; human, in vivo", "value": "mild to moderate"},
      {"measurement": "subjects with mild, non-clinically significant decrease in neutrophil and leukocyte counts", "setting": "[2]; human, in vivo", "value": 27, "unit": "subjects"},
      {"measurement": "vital signs, 12-lead ECG, 24-hour Holter monitoring, physical examination", "setting": "[2]; human, in vivo", "value": "No other clinically relevant findings"},
      {"measurement": "subjects with skin rash and/or pruritus", "setting": "[2]; multiple dose 30 mg QD", "value": 2, "unit": "n"},
      {"measurement": "subjects with skin rash and/or pruritus", "setting": "[2]; multiple dose 50 mg BID", "value": 3, "unit": "n"},
      {"measurement": "subjects with skin rash and/or pruritus", "setting": "[2]; multiple dose 100 mg QD", "value": 3, "unit": "n"},
      {"measurement": "subjects with skin rash and/or pruritus", "setting": "[2]; multiple dose 200 mg QD", "value": 2, "unit": "n"},
      {"measurement": "neutrophil and leukocyte counts", "setting": "[2]; non-clinically significant, occasionally noted", "value": "Mild decreases"},
      {"measurement": "subjects with TEAEs of maculopapular skin rash and/or pruritus (adverse events of special interest)", "setting": "[2]; of 122 enrolled, all received Compound IA", "value": 12, "unit": "subjects"},
      {"measurement": "tolerability", "setting": "[2]; single and multiple oral doses, healthy subjects", "value": "generally well tolerated"},
      {"measurement": "subjects with skin rash and/or pruritus", "setting": "[2]; single dose 100 mg", "value": 1, "unit": "n"},
      {"measurement": "subjects with skin rash and/or pruritus", "setting": "[2]; single dose 600 mg", "value": 1, "unit": "n"},
      {"measurement": "deaths or serious adverse events", "setting": "[2]; whole study", "value": "No deaths or serious adverse events (SAEs) were reported"},
      {"measurement": "increase of AUC, fed (high-fat, high-calorie meal) vs fasted", "setting": "[3]; 100 mg crystalline tablet", "value": 1.49, "unit": "fold"},
      {"measurement": "increase of Cmax, fed (high-fat, high-calorie meal) vs fasted", "setting": "[3]; 100 mg crystalline tablet", "value": 2.05, "unit": "fold"},
      {"measurement": "Cmax lower for crystalline tablet than suspension", "setting": "[3]; 100 mg, fasted", "value": 78, "unit": "%"},
      {"measurement": "multiple dose PK", "setting": "[3]; after 2 weeks, multiple doses and formulations", "value": "linear"},
      {"measurement": "absorption of crystalline material", "setting": "[3]; doses≥100 mg", "value": "solubility-limited absorption"},
      {"measurement": "median lag time", "setting": "[3]; encapsulated crystalline tablets 25 mg bid", "value": 0.75, "unit": "h"},
      {"measurement": "median lag time", "setting": "[3]; encapsulated crystalline tablets 50 mg bid", "value": 0.25, "unit": "h"},
      {"measurement": "AUCs of subjects with heterogenous CYP2C9 genotypes versus normal CYP2C9 activity", "setting": "[3]; human, in vivo", "value": "higher"},
      {"measurement": "oral clearance relative to human liver blood flow", "setting": "[3]; human, in vivo, po", "value": "≤ 2", "unit": "%"},
      {"measurement": "renal elimination as share of oral dose", "setting": "[3]; human, in vivo, po", "value": "less than 0.8%"},
      {"measurement": "half-life", "setting": "[3]; human, plasma, oral, 100 mg, suspension formulation", "value": 17.7, "unit": "h"},
      {"measurement": "half-life", "setting": "[3]; human, plasma, oral, across QD and BID dose levels", "value": "9.83 to 16.2", "unit": "h"},
      {"measurement": "Vd/F", "setting": "[3]; human, plasma, oral, steady state, across QD and BID dose levels, read-out: Vss/F", "value": "12.6 to 23.3", "unit": "L"},
      {"measurement": "Tmax", "setting": "[3]; human, plasma, po, single oral doses 30-600 mg, fasted", "value": "1.5 to 3", "unit": "h"},
      {"measurement": "Tmax", "setting": "[3]; human, plasma, po, single oral doses of suspensions, fasted, across dose levels", "value": "0.76 to 3", "unit": "h"},
      {"measurement": "CL renal", "setting": "[3]; human, oral, Day 1", "value": "~0.0667", "unit": "mL/min"},
      {"measurement": "CL renal", "setting": "[3]; human, oral, steady state (Day 14)", "value": "~0.133", "unit": "mL/min"},
      {"measurement": "drug accumulation in reaching steady state", "setting": "[3]; once daily dosing", "value": "about 1.2 fold"},
      {"measurement": "increase of AUC0-last, fed compared to fasted", "setting": "[3]; [5]", "value": 1.49, "unit": "fold"},
      {"measurement": "increase of Cmax, fed compared to fasted", "setting": "[3]; [5]", "value": 2.05, "unit": "fold"},
      {"measurement": "dose proportionality of exposure", "setting": "[3]; SDD suspension 100-600 mg, fasted", "value": "dose-proportionally; also recorded: dose-proportional increase"},
      {"measurement": "dose proportionality of exposure", "setting": "[3]; crystalline suspension 3-300 mg, fasted", "value": "less than dose-proportional"},
      {"measurement": "median tmax", "setting": "[3]; single oral doses of suspensions, fasted, across dose levels", "value": "0.76 to 3.0", "unit": "h"},
      {"measurement": "CLss/F", "setting": "[3]; steady state, across QD and BID dose levels", "value": "~1.0", "unit": "L/h"},
      {"measurement": "drug accumulation in reaching steady state", "setting": "[3]; twice daily dosing", "value": 2, "unit": "fold"}
    ]}
  ]
}
